Drawing on patent US20100056526A1, “HETEROMONOCYCLIC COMPOUND AND USE THEREOF” (Takeda Pharmaceutical Company Limited, priority 2006, published 2010), this text covers IC50 and activation for 17 compounds.

The structures appear in SMILES notation. Where a name gives a salt, the structure may show the parent alone. Read-outs that look alike come from different tables or passages of the source.

One test deals with T1, human AT1 receptor (Homo sapiens, UniProt P30556).
T1 construct: expressed in transfected cells; host or cells: CHO-K1
T1 sequence (P30556 1-359): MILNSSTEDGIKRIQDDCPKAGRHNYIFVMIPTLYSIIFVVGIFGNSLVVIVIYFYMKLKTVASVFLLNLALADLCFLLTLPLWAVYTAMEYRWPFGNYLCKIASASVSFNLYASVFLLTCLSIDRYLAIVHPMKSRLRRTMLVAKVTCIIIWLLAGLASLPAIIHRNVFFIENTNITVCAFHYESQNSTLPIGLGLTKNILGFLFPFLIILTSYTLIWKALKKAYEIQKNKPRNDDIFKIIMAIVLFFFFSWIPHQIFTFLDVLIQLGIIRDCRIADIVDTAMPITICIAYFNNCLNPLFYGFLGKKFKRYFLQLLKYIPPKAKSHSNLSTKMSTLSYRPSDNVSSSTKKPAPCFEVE
Description: Binding assay using human AT1 receptor-expressing CHO-K1 cell membrane fraction ([125I]-angiotensin II). To be noted: 22.5 pM [125I]-angiotensin II, 9 μg AT1 membrane, 1 hr room temperature; read-out: AT1 receptor binding inhibitory action (IC50 (nM)). Summed up:
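CHO-K1 membranes stably expressing AT1 (9 μg) incubated with 22.5 pM [125I]-angiotensin II and compound in 50 mM Tris pH 7.4, 10 mM MgCl2, with or without 0.3 mg/mL fatty acid-free BSA, 1 hr at room temperature. Bound radioactivity counted after GF/C filtration; nonspecific binding with 1 μM CV-11974; IC50 calculated.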

In another test the target is T2, PPARγ (Homo sapiens, UniProt P37231).
T2 construct: expressed in transfected cells; host or cells: CHO-K1
T2 sequence (P37231 1-477 isoform P37231-2): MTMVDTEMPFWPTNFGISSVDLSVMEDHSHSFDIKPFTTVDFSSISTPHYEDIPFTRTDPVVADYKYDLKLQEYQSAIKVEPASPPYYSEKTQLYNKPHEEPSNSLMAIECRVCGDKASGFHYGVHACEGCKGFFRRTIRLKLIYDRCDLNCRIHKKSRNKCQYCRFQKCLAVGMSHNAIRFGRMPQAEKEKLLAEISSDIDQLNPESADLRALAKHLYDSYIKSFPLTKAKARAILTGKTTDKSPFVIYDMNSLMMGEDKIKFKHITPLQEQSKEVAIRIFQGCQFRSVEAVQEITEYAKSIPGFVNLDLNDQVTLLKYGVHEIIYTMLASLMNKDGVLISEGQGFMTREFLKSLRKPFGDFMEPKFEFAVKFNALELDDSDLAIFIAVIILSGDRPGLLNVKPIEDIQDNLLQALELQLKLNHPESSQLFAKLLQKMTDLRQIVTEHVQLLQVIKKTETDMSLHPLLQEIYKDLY
T2 sequence (P19793 1-462 partner): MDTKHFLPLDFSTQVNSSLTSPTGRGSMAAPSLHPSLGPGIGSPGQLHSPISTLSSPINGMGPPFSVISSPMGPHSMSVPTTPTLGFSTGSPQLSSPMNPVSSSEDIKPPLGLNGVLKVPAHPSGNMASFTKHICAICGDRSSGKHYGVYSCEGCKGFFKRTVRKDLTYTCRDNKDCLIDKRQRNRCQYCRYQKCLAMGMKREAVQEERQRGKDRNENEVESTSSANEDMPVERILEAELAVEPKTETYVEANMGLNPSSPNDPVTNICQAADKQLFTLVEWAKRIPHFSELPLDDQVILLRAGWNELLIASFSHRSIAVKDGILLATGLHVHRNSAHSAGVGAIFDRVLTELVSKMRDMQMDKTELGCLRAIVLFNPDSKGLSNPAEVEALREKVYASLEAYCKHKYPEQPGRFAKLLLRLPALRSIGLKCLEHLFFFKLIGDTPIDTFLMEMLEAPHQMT
The test is described as follows: Evaluation of PPARγ activating action (luciferase reporter in PPARγ:RXRα:4ERPP/CHO-K1 cells). The class given is cell-based. To be noted: CHO-K1, 24 h, read-out: PPARγ activating action (activation % (10^−6 M)). A digest of the protocol: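 CHO-K1 cells stably carrying PPARγ, RXRα and a 4ERPP luciferase reporter were treated with compound for 1 day at 37 °C in F12 medium with 0.1% fatty acid-free BSA. Luciferase activity was read and scaled between no compound (0%) and reference agonist compound X at 1 μM (100%).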
Background: A reporter such as luciferase makes a cellular process visible.

Setting [1] is: test compound 10^−6 M, luciferase activity relative to control compound X (1 μM) = 100%, non-administration group = 0%.

What is called IC50 is the concentration at which inhibition is half-maximal. With `CCCc1nc(CC)c(-c2ccc(OC(C)C)c(F)c2)c(=O)n1Cc1ccc(-c2ccccc2-c2noc(=O)[nH]2)cc1` [Example 460, 6-ethyl-5-(3-fluoro-4-isopropoxyphenyl)-3-{[2′-(5-oxo-4,5-dihydro-1,2,4-oxadiazol-3-yl)biphenyl-4-yl]methyl}-2-propylpyrimidin-4(3H)-one], the IC50 on human AT1 receptor worked out at 2.2 nM. Moreover, the activation at 1 µM on PPARγ (setting [1]) was found to be 30%.

On to `CCCc1nc(CC)c(-c2ccc(OC(C)C)nc2)c(=O)n1Cc1ccc(-c2ccccc2-c2noc(O)n2)cc1F` [Example 467, 6-ethyl-3-{[3-fluoro-2′-(5-oxo-4,5-dihydro-1,2,4-oxadiazol-3-yl)biphenyl-4-yl]methyl}-5-(6-isopropoxypyridin-3-yl)-2-propylpyrimidin-4(3H)-one], for which the IC50 at human AT1 receptor worked out at 2.5 nM. Besides, the activation at 1 µM on PPARγ (setting [1]) was determined as 35.7%.

As to `CCCc1nc(CC)c(C(O)C(C)C)c(=O)n1Cc1ccc(-c2ccccc2-c2noc(O)n2)cc1` (stereo not shown) [Example 473, 6-ethyl-5-(1-hydroxy-2-methylpropyl)-3-{[2′-(5-oxo-4,5-dihydro-1,2,4-oxadiazol-3-yl)biphenyl-4-yl]methyl}-2-propylpyrimidin-4(3H)-one potassium salt], at human AT1 receptor, the IC50 stood at 3.6 nM. Moreover, at PPARγ, the activation at 1 µM stood at 15.7%.

Take `CCCc1nc(C)c(-c2ccc(OC(C)(C)C)cc2)c(=O)n1Cc1ccc(-c2ccccc2-c2noc(O)n2)cc1F` [Example 475, 5-(4-tert-butoxyphenyl)-3-{[3-fluoro-2′-(5-oxo-4,5-dihydro-1,2,4-oxadiazol-3-yl)biphenyl-4-yl]methyl}-6-methyl-2-propylpyrimidin-4(3H)-one]: the IC50 on human AT1 receptor amounted to 2 nM. For the same compound, the activation at 1 µM on PPARγ (setting [1]) was 28.7%.

With `CCCc1nc(C)c(Oc2ccc(OC)cc2)c(=O)n1Cc1ccc(-c2ccccc2-c2noc(O)n2)cc1` [Example 476, 5-(4-methoxyphenoxy)-6-methyl-3-{[2′-(5-oxo-4,5-dihydro-1,2,4-oxadiazol-3-yl)biphenyl-4-yl]methyl}-2-propylpyrimidin-4(3H)-one potassium salt], on human AT1 receptor, the IC50 came to 2.1 nM. Moreover, the activation at 1 µM at PPARγ came to 18.5%.

With `CCCc1nc(CC)c(Oc2ccc(CC)cc2)c(=O)n1Cc1ccc(-c2ccccc2-c2noc(O)n2)cc1` [Example 480, 6-ethyl-5-(4-ethylphenoxy)-3-{[2′-(5-oxo-4,5-dihydro-1,2,4-oxadiazol-3-yl)biphenyl-4-yl]methyl}-2-propylpyrimidin-4(3H)-one], the IC50 at human AT1 receptor was determined as 3.2 nM. Moreover, the activation at 1 µM at PPARγ (setting [1]) is 30.8%.

On to `CCCc1nc(C)c(-c2ccc(OC(C)C)nc2)c(=O)n1Cc1ccc(-c2ccccc2-c2noc(=O)[nH]2)cc1F` [Example 482, 3-{[3-fluoro-2′-(5-oxo-4,5-dihydro-1,2,4-oxadiazol-3-yl)biphenyl-4-yl]methyl}-5-(6-isopropoxypyridin-3-yl)-6-methyl-2-propylpyrimidin-4(3H)-one], for which the IC50 at human AT1 receptor was 1.9 nM. The activation at 1 µM on PPARγ (setting [1]) is 30.4%.

For the compound `CCCc1nc(CC)c(-c2ccc(OC(C)C)nc2)c(=O)n1Cc1ccc(-c2ccccc2-c2noc(=O)[nH]2)cc1` [Example 483, 6-ethyl-5-(6-isopropoxypyridin-3-yl)-3-{[2′-(5-oxo-4,5-dihydro-1,2,4-oxadiazol-3-yl)biphenyl-4-yl]methyl}-2-propylpyrimidin-4(3H)-one], the IC50 on human AT1 receptor stood at 2.4 nM. Besides, on PPARγ (setting [1]), the activation at 1 µM amounted to 31.5%.

As for `CCCc1nc(CC)c(Oc2cc(F)ccc2F)c(=O)n1Cc1ccc(-c2ccccc2-c2noc(=O)[nH]2)cc1` [Example 484, 5-(2,5-difluorophenoxy)-6-ethyl-3-{[2′-(5-oxo-4,5-dihydro-1,2,4-oxadiazol-3-yl)biphenyl-4-yl]methyl}-2-propylpyrimidin-4(3H)-one], the IC50 at human AT1 receptor came out at 2.3 nM. Besides, the activation at 1 µM at PPARγ (setting [1]) is 19.4%.

Consider `CCCc1nc(CC)c(Oc2ccc3c(c2)OCO3)c(=O)n1Cc1ccc(-c2ccccc2-c2noc(O)n2)cc1` [Example 485, 5-(1,3-benzodioxol-5-yloxy)-6-ethyl-3-{[2′-(5-oxo-4,5-dihydro-1,2,4-oxadiazol-3-yl)biphenyl-4-yl]methyl}-2-propylpyrimidin-4(3H)-one], for which the IC50 at human AT1 receptor came out at 2 nM. The activation at 1 µM at PPARγ (setting [1]) is 23.5%.

For `CCCc1nc(CC)c(Oc2cccc(OC)c2)c(=O)n1Cc1ccc(-c2ccccc2-c2noc(O)n2)cc1` [Example 488, 6-ethyl-5-(3-methoxyphenoxy)-3-{[2′-(5-oxo-4,5-dihydro-1,2,4-oxadiazol-3-yl)biphenyl-4-yl]methyl}-2-propylpyrimidin-4(3H)-one potassium salt], at human AT1 receptor, the IC50 amounted to 1.9 nM. Also, at PPARγ, the activation at 1 µM came to 16.7%.

Consider `CCCc1nc(CC)c(-c2ccc(OCC3CC3)nc2)c(=O)n1Cc1ccc(-c2ccccc2-c2noc(=O)[nH]2)cc1` [Example 500, 5-[6-(cyclopropylmethoxy)pyridin-3-yl]-6-ethyl-3-{[2′-(5-oxo-4,5-dihydro-1,2,4-oxadiazol-3-yl)biphenyl-4-yl]methyl}-2-propylpyrimidin-4(3H)-one], for which the IC50 on human AT1 receptor is 2.7 nM. At PPARγ (setting [1]), the activation at 1 µM was found to be 35.9%.

Regarding `CCCc1nc(C)c(-c2ccc(OCC3CC3)nc2)c(=O)n1Cc1ccc(-c2ccccc2-c2noc(=O)[nH]2)cc1F` [Example 501, 5-[6-(cyclopropylmethoxy)pyridin-3-yl]-3-{[3-fluoro-2′-(5-oxo-4,5-dihydro-1,2,4-oxadiazol-3-yl)biphenyl-4-yl]methyl}-6-methyl-2-propylpyrimidin-4(3H)-one], the IC50 at human AT1 receptor was 2.6 nM. The activation at 1 µM on PPARγ (setting [1]) is 31.8%.

In the case of `CCCc1nc(CC)c(-c2ccc(OCC)nc2)c(=O)n1Cc1ccc(-c2ccccc2-c2noc(O)n2)cc1` [Example 507, 5-(6-ethoxypyridin-3-yl)-6-ethyl-3-{[2′-(5-oxo-4,5-dihydro-1,2,4-oxadiazol-3-yl)biphenyl-4-yl]methyl}-2-propylpyrimidin-4(3H)-one], on human AT1 receptor, the IC50 amounted to 2.2 nM. For the same compound, the activation at 1 µM at PPARγ (setting [1]) was 32.4%.

Turning to `CCCc1nc(C)c(-c2ccc(OC(C)(C)CO)cc2)c(=O)n1Cc1ccc(-c2ccccc2-c2noc(=O)[nH]2)cc1F` [Example 509, 3-{[3-fluoro-2′-(5-oxo-4,5-dihydro-1,2,4-oxadiazol-3-yl)biphenyl-4-yl]methyl}-5-[4-(2-hydroxy-1,1-dimethylethoxy)phenyl]-6-methyl-2-propylpyrimidin-4(3H)-one], at human AT1 receptor, the IC50 turned out to be 1.2 nM. Further, the activation at 1 µM on PPARγ (setting [1]) was found to be 16.2%.

Take `CCCCc1nc(C2CC2)c(-c2ccc(OC(C)(C)CO)cc2)c(=O)n1Cc1ccc(-c2ccccc2-c2noc(O)n2)cc1` [Example 510, 2-butyl-6-cyclopropyl-5-[4-(2-hydroxy-1,1-dimethylethoxy)phenyl]-3-{[2′-(5-oxo-4,5-dihydro-1,2,4-oxadiazol-3-yl)biphenyl-4-yl]methyl}pyrimidin-4(3H)-one]: the IC50 on human AT1 receptor worked out at 2.3 nM. Also, the activation at 1 µM at PPARγ (setting [1]) came to 24.4%.

`CCCc1nc(CC)c(-c2ccc(OC(C)(C)CO)cc2)c(=O)n1Cc1ccc(-c2ccccc2-c2noc(=O)[nH]2)cc1F` [Example 511, 6-ethyl-3-{[3-fluoro-2′-(5-oxo-4,5-dihydro-1,2,4-oxadiazol-3-yl)biphenyl-4-yl]methyl}-5-[4-(2-hydroxy-1,1-dimethylethoxy)phenyl]-2-propylpyrimidin-4(3H)-one]: the IC50 on human AT1 receptor was 1.3 nM. Moreover, at PPARγ (setting [1]), the activation at 1 µM was 31%.
